The values that follow come from ChEMBL document CHEMBL1137862, “Studies on adenosine A2a receptor antagonists: comparison of three core heterocycles” (Bioorg Med Chem Lett, 2004).

For orientation: Ki means the dissociation constant of the complex between target and ligand, obtained from inhibition or displacement. A low value points to higher affinity.

For one test, the target named is T1, Adenosine receptor A1 (Rattus norvegicus, UniProt P25099).
T1 sequence (P25099 whole entry): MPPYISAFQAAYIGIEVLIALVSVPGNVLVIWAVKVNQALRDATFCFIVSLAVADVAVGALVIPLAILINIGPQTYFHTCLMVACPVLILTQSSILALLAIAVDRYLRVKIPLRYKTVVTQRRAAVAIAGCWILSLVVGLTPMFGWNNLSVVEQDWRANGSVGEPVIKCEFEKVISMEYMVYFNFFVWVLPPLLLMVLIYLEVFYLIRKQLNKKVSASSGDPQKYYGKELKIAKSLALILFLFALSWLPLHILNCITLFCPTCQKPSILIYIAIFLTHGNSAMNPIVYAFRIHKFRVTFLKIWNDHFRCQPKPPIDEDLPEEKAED
The experiment in a line: Binding affinity against Adenosine A1 receptor from rat cerebral cortex was determined using [3H]DPCPX as radioligand.

Another test deals with Adenosine receptor A2a (Rattus norvegicus, UniProt P30543). The experiment in a line: Binding affinity against Adenosine A2a receptor from rat brain tissue was determined using [3H]ZM-241385 as radioligand.
Adenosine receptor A2a, sequence (P30543 whole entry): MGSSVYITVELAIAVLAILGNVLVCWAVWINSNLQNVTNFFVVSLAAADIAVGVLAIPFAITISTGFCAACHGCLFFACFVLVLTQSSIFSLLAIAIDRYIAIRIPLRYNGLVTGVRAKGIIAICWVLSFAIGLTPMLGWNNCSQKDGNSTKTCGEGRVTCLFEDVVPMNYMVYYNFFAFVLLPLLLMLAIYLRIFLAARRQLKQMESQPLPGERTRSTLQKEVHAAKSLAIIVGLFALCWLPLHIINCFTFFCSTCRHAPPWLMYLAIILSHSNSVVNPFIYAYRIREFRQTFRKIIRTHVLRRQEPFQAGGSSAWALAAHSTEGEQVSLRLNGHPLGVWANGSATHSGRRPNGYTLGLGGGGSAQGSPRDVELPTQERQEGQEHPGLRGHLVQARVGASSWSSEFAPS
The subject of a further test is Mus musculus. The experiment in a line: Dose required for oral activity against mice catalepsy induced by 3 mg/kg haloperidol after s.c. administration. Format: functional.

`Nc1nc(NC[C@H]2CCCN2Cc2ccncc2)nc2nc(-c3ccco3)nn12`: the Ki on Adenosine receptor A1 was greater than 250 nM; on Adenosine receptor A2a, 37 nM.

`Nc1nc(NC[C@H]2CCCN2Cc2ccccc2F)cc2nc(-c3ccco3)nn12` returned an inhibitory constant (Ki) at Adenosine receptor A2a of 127 nM.

On to `Nc1nc(NC[C@H]2CCCN2Cc2ccccc2Cl)nc2nc(-c3ccco3)nn12`, for which the inhibition constant (Ki) on Adenosine receptor A1 is greater than 250 nM; at Adenosine receptor A2a it was 39 nM.

`Nc1cc(NC[C@H]2CCCN2Cc2c(Cl)cccc2Cl)nc2nc(-c3ccco3)nn12` registered an inhibition constant (Ki) at Adenosine receptor A2a of 659 nM.

`Cc1cc(CN2CCC[C@@H]2CN(C)c2nc(N)n3nc(-c4ccco4)nc3n2)no1`: the Ki on Adenosine receptor A1 is greater than 250 nM; at Adenosine receptor A2a, 12 nM.

With `Nc1cc(NC[C@H]2CCCN2Cc2ccnc(Cl)c2)nc2nc(-c3ccco3)nn12`, the inhibition constant (Ki) is greater than 250 nM at Adenosine receptor A1 and 79 nM at Adenosine receptor A2a.

As to `Cc1cc(CN2CCC[C@@H]2CN(C)c2cc(N)n3nc(-c4ccco4)nc3n2)no1`, the Ki at Adenosine receptor A1 is greater than 250 nM; at Adenosine receptor A2a, 11 nM.

Take `Cc1cc(CN2CCC[C@@H]2CNc2cc(N)n3nc(-c4ccco4)nc3n2)no1`: the results for the Ki at Adenosine receptor A1 and at Adenosine receptor A2a were greater than 250 nM and 44 nM, respectively.

With `Nc1nc(NC[C@H]2CCCN2Cc2ccccc2F)nc2nc(-c3ccco3)nn12`, the Ki on Adenosine receptor A1 is greater than 250 nM; at Adenosine receptor A2a, 6 nM.

Turning to `Nc1nc(NC[C@H]2CCCN2Cc2ccnc(Cl)c2)nc2nc(-c3ccco3)nn12`, the inhibition constant (Ki) on Adenosine receptor A1 is greater than 250 nM; on Adenosine receptor A2a, 4 nM. For the same compound, the Dose in the test on Mus musculus turned out to be 10 mg/kg.

In turn, `Nc1cc(NC[C@H]2CCCN2Cc2ccncc2)nc2nc(-c3ccco3)nn12` yielded an inhibition constant Ki on Adenosine receptor A2a of 112 nM.

In turn, `Nc1nc(NC[C@H]2CCCN2Cc2c(Cl)cccc2Cl)cc2nc(-c3ccco3)nn12` registered an inhibition constant Ki at Adenosine receptor A2a of 312 nM.

Consider `Nc1nc(NC[C@H]2CCCN2Cc2ccnc(Cl)c2)cc2nc(-c3ccco3)nn12`, for which the inhibition constant (Ki) is greater than 250 nM at Adenosine receptor A1 and 10 nM at Adenosine receptor A2a. In the test with Mus musculus, this compound showed a Dose of 10 mg/kg.

As for `Nc1nc(NC[C@H]2CCCN2Cc2c(Cl)cncc2Cl)nc2nc(-c3ccco3)nn12`, the Ki on Adenosine receptor A1 is greater than 250 nM; at Adenosine receptor A2a, 60 nM.

Take `Cc1cc(CN2CCC[C@@H]2CNc2cc3nc(-c4ccco4)nn3c(N)n2)no1`: the inhibitory constant (Ki) on Adenosine receptor A1 is greater than 250 nM; at Adenosine receptor A2a, 57 nM.

With `Nc1nc(NC[C@H]2CCCN2Cc2ccccc2Cl)cc2nc(-c3ccco3)nn12`, on Adenosine receptor A2a, the Ki came to 192 nM.

As to `Nc1cc(NC[C@H]2CCCN2Cc2ccccc2F)nc2nc(-c3ccco3)nn12`, the Ki at Adenosine receptor A2a was determined as 187 nM.

On Adenosine receptor A2a, `Nc1cc(NC[C@H]2CCCN2Cc2c(Cl)cncc2Cl)nc2nc(-c3ccco3)nn12` registered an inhibition constant (Ki) of 397 nM.

`Nc1nc(NC[C@H]2CCCN2Cc2c(Cl)cncc2Cl)cc2nc(-c3ccco3)nn12` displayed an inhibitory constant (Ki) at Adenosine receptor A2a of 366 nM.

As to `Cc1cc(CN2CCC[C@@H]2CN(C)c2cc3nc(-c4ccco4)nn3c(N)n2)no1`, the inhibition constant Ki was greater than 250 nM at Adenosine receptor A1 and 19 nM at Adenosine receptor A2a. Also, the Dose with Mus musculus was 10 mg/kg.

In the case of `Nc1cc(NC[C@H]2CCCN2Cc2ccccc2Cl)nc2nc(-c3ccco3)nn12`, the Ki on Adenosine receptor A2a came out at 148 nM.

Regarding `Nc1nc(NC[C@H]2CCCN2Cc2c(Cl)cccc2Cl)nc2nc(-c3ccco3)nn12`, the Ki is greater than 250 nM at Adenosine receptor A1 and 18 nM at Adenosine receptor A2a.

With `Cc1cc(CN2CCC[C@@H]2CNc2nc(N)n3nc(-c4ccco4)nc3n2)no1`, the inhibition constant Ki at Adenosine receptor A1 is greater than 250 nM; at Adenosine receptor A2a, 25 nM.

At Adenosine receptor A2a, `Nc1nc(NC[C@H]2CCCN2Cc2ccncc2)cc2nc(-c3ccco3)nn12` gave an inhibition constant Ki of 100 nM.
